This assay addresses T1, DmOctβ1 receptor (Drosophila melanogaster, UniProt Q9VCZ3).
T1 construct: expressed in transfected cells; host or cells: flpTM cells (HEK293 flpIn, Invitrogen #750-07, carrying the CNGA2 variant)
T1 sequence (Q9VCZ3 1-508): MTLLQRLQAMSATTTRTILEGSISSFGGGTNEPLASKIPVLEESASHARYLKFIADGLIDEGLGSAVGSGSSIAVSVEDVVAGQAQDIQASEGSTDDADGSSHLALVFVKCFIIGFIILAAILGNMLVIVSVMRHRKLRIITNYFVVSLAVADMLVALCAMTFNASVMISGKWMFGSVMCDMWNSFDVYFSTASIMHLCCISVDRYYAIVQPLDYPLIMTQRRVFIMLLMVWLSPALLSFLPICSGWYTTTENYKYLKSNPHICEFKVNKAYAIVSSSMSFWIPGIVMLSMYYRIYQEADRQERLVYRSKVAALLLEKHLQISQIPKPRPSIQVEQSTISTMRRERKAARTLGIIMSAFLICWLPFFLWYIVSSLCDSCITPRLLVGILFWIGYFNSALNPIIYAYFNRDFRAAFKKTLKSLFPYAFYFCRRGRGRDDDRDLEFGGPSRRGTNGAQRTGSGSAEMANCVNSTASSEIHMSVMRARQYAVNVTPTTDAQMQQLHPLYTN
The experiment in a line: Stopped-flow Ca2+ fluorescence measurements, flpTM-DmOctβ1 cells, octopamine. Format: cell-based. Here is the method: In successive stopped-flow measurements, the flpTM-DmOctβ1 cells loaded with Fluo-4 were stimulated with increasing octopamine (1 nM–3 µM) and NKH477 (100 nM–300 µM) concentrations. The fluorescence intensities were monitored over 80 s and 100 s, respectively (Figure 4A1,B1). The fluorescence intensities increased and finally reached a plateau with increasing concentrations of both of the ligands. However, the saturating ligand concentrations differed strongly between octopamine (≥300 nM) and NKH477 (≥100 µM). By plotting the maximal changes in fluorescence (ΔF/F0) against ligand concentrations, concentration–response curves were generated and EC50 values were calculated (Figure 4C). […] As observed for the DmOctα1B cell lines (see Figure 3D), the signal response times of flpTM-DmOctβ1 cells were faster at higher ligand concentrations (Figure 4A2,B2). In Figure 4D, the time until the signals were detected (for details, see Materials and Methods, Section 4.4) are plotted for the ligand concentrations covering the calculated EC50 value (dynamic range) and for saturating concentrations (saturating range). The signal response times of the flpTM-DmOctβ1 cells for octopamine were in the range of 30 s (dynamic range) and 6 s (saturating range), whereas the signal detection upon NKH477 application was observed after 50 s (dynamic range) and 16 s (saturating range). The signal response times were about three- to five-fold faster at the saturating concentrations in comparison to the octopamine and NKH477 concentrations in the dynamic range.
As described for the Fluo-4-loaded flpTM-DmOctβ1 cells, similar experiments were performed with the flpTM-DmOctβ1-GCaMP3.0 cells (Figure 5). The cells were successively mixed with increasing concentrations of octopamine (30 pM–100 nM) or NKH477 (30 nM–100 µM) and the fluorescence intensities were recorded over 100 s. For both of the ligands, increasing ligand concentrations led to an increase in the fluorescence emission finally reaching a plateau (Figure 5A1,B1).
For the stopped-flow measurements, the SFM-400 system (BioLogic, Münster, Germany) was used. The main component of the stopped-flow setup is the SFM-400 module with four 10 mL syringes, which can be filled by external valves. The syringes are driven by step motors. The reactants can be mixed in three individual mixing chambers (M1–M3). The volume between M1 and M2 is 21 µL, and 31 µL between M2 and M3. The observation chamber is a quartz cuvette (FC-15) with a reaction volume of 31 µL, installed behind M3. To avoid fluctuations of the reaction mixture in the cuvette, which might lead to noisy and inconsistent signals, a hard stop valve located behind the cuvette can be closed after injection of the reactants. The stopped-flow module is controlled via a MPS-60 control unit (BioLogic). Data acquisition and operation of the system were performed with the Bio-Kine 32 v4.74 software (BioLogic).
The reactions in the cuvette were analyzed via the changes in the fluorescence. A 150 W Xe/Hg-lamp (ALX-220; BioLogic) was used as a light source for the excitation. The excitation light was guided via a light guide towards the cuvette. To determine the wavelength of the excitation light, a 482 nm bandpass filter (482/35 nm BrightLine® single-band bandpass filter; Semrock, Rochester, NY, USA) was used. A heat protection filter (3 mm; KG1, Schott; Mainz, Germany) was placed between the Xe/Hg-lamp and the excitation filter. The fluorescence was detected with a photomultiplier (PMS 200, BioLogic) installed rectangularly to the light path of the excitation light. Between the cuvette and the photomultiplier tube a 535 nm bandpass emission filter (XF3007 535AF35; Horiba, Oberursel, Germany) was placed to select for the emission light being detected by the photomultiplier. A voltage of 600 V was applied to the photomultiplier.
The fluorescence measurements were performed either directly with the cells expressing GCaMP3.0 or after loading the cells with Fluo-4-AM. […]

pEC50: −log10 of the molar value. “And” between values parts separate entries of the source, which are not always exact repeats. Equal entries are not always repeated. Some results are limits rather than exact numbers.

`NCC(O)c1ccc(O)cc1` (stereo not drawn) [octopamine]: the Signal Response Time runs as follows: (dynamic range (concentrations around EC50), flpTM-DmOctβ1 cells loaded with Fluo-4) around 30 s; (saturating concentration, flpTM-DmOctβ1-GCaMP3.0 cells, mean ± SEM) around 6 s; (saturating concentration, flpTM-DmOctβ1-GCaMP3.0 cells, mean ± SEM, listed as Octopamine) 6.00 ± 0.20 s; (saturating concentration, flpTM-DmOctβ1 cells loaded with Fluo-4, mean ± SEM) around 6 s; (saturating concentration, flpTM-DmOctβ1 cells loaded with Fluo-4, mean ± SEM, listed as Octopamine) 6.00 ± 0.13 s; (saturating ligand concentration, flpTM-DmOctβ1 cell lines, Fluo-4 and GCaMP3.0) 6 s and ≈ 6 s. The pEC50 (in general, the negative decadic logarithm of the EC50, by convention in mol/L) is ~8.74 and 8.75 and 8.74 (stopped-flow, flpTM-DmOctβ1-GCaMP3.0 cells, mean ± SEM); ~7.66 and 7.66 (stopped-flow, flpTM-DmOctβ1 cells loaded with Fluo-4, mean ± SEM). The same compound came in with a saturating ligand concentration (stopped-flow, flpTM-DmOctβ1 cells loaded with Fluo-4) of at least 300 nM.
